Key:
Type in all cases: cell-based
Settings in all cases: Human immunodeficiency virus 1, clade B NL4-3, MT4
[1] = Inhibition of wild type HIV-1 clade B NL4-3 Gag polyprotein SP1 infected in human MT4 cells
[2] = Inhibition of bevirimat-resistant HIV1 clade B NL4-3 CA-SP1 V370A mutant infected in human MT4 cells
[3] = Inhibition of bevirimat-resistant HIV1 clade B NL4-3 CA-SP1 Q369H mutant infected in human MT4 cells
[4] = Inhibition of bevirimat-resistant HIV1 clade B NL4-3 CA-SP1 T371A mutant infected in human MT4 cells

Structure (SMILES)	IC50 [1]	IC50 [2]	IC50 [3]	IC50 [4]
CC(C)C1=C2[C@H]3CC[C@@H]4[C@@]5(C)CC[C@H](OC(=O)CC(C)(C)C(=O)O)C(C)(C)[C@@H]5CC[C@@]4(C)[C@]3(C)CC[C@@]2(C(=O)C(=O)O)CC1=O	> 10000 nM	–	–	–
CC(C)C1=C2[C@H]3CC[C@@H]4[C@@]5(C)CC[C@H](OC(=O)CC(C)(C)C(=O)O)C(C)(C)[C@@H]5CC[C@@]4(C)[C@]3(C)CC[C@@]2(C(=O)C(=O)NCc2ccc(Cl)cc2Cl)CC1=O	37 nM	193 nM	–	–
CC(C)C1=C2[C@H]3CC[C@@H]4[C@@]5(C)CC[C@H](OC(=O)CC(C)(C)C(=O)O)C(C)(C)[C@@H]5CC[C@@]4(C)[C@]3(C)CC[C@@]2(C(=O)C(=O)NCc2cccc(Cl)c2)CC1=O	16 nM	370 nM	–	–
CC[C@@H](NC(=O)C(=O)[C@@]12CC[C@]3(C)[C@H](CC[C@@H]4[C@@]5(C)CC[C@H](OC(=O)CC(C)(C)C(=O)O)C(C)(C)[C@@H]5CC[C@]43C)C1=C(C(C)C)C(=O)C2)c1ccc(Cl)cc1	28 nM	64 nM	74 nM	12 nM
CC(C)C1=C2[C@H]3CC[C@@H]4[C@@]5(C)CC[C@H](OC(=O)CC(C)(C)C(=O)O)C(C)(C)[C@@H]5CC[C@@]4(C)[C@]3(C)CC[C@@]2(C(=O)C(=O)N2CCC2)CC1=O	5600 nM	> 10000 nM	–	–
CC(C)C1=C2[C@H]3CC[C@@H]4[C@@]5(C)CC[C@H](OC(=O)CC(C)(C)C(=O)O)C(C)(C)[C@@H]5CC[C@@]4(C)[C@]3(C)CC[C@@]2(C(=O)C(=O)NC(C)(C)c2ccccc2)CC1=O	18 nM	19 nM	–	–
CC(C)C1=C2[C@H]3CC[C@@H]4[C@@]5(C)CC[C@H](OC(=O)CC(C)(C)C(=O)O)C(C)(C)[C@@H]5CC[C@@]4(C)[C@]3(C)CC[C@@]2(C(=O)C(=O)NCc2ccc(F)cc2)CC1=O	16 nM	202 nM	–	–
CC(C)C1=C2[C@H]3CC[C@@H]4[C@@]5(C)CC[C@H](OC(=O)CC(C)(C)C(=O)O)C(C)(C)[C@@H]5CC[C@@]4(C)[C@]3(C)CC[C@@]2(C(=O)C(=O)NCc2ccc(Cl)cc2)CC1=O	12 nM	87 nM	–	–
CC(C)C1=C2[C@H]3CC[C@@H]4[C@@]5(C)CC[C@H](OC(=O)CC(C)(C)C(=O)O)C(C)(C)[C@@H]5CC[C@@]4(C)[C@]3(C)CC[C@@]2(C(=O)C(=O)N[C@H](C)c2ccc(Cl)cc2)CC1=O	18 nM	25 nM	25 nM	5 nM
Cc1ccc(NC(=O)C(=O)[C@@]23CC[C@]4(C)[C@H](CC[C@@H]5[C@@]6(C)CC[C@H](OC(=O)CC(C)(C)C(=O)O)C(C)(C)[C@@H]6CC[C@]54C)C2=C(C(C)C)C(=O)C3)cc1	251 nM	664 nM	–	–
CC(C)C1=C2[C@H]3CC[C@@H]4[C@@]5(C)CC[C@H](OC(=O)CC(C)(C)C(=O)O)C(C)(C)[C@@H]5CC[C@@]4(C)[C@]3(C)CC[C@@]2(C(=O)C(=O)NCCCN2CCCC2)CC1=O	1180 nM	7500 nM	–	–
CC(C)C1=C2[C@H]3CC[C@@H]4[C@@]5(C)CC[C@H](OC(=O)CC(C)(C)C(=O)O)C(C)(C)[C@@H]5CC[C@@]4(C)[C@]3(C)CC[C@@]2(C(=O)C(=O)NC2CCCCC2)CC1=O	28 nM	329 nM	–	–
CC(C)C1=C2[C@H]3CC[C@@H]4[C@@]5(C)CC[C@H](OC(=O)CC(C)(C)C(=O)O)C(C)(C)[C@@H]5CC[C@@]4(C)[C@]3(C)CC[C@@]2(C(=O)C(=O)NCCN2CCCC2)CC1=O	1000 nM	> 10000 nM	–	–
CC(C)C1=C2[C@H]3CC[C@@H]4[C@@]5(C)CC[C@H](OC(=O)CC(C)(C)C(=O)O)C(C)(C)[C@@H]5CC[C@@]4(C)[C@]3(C)CC[C@@]2(C(=O)C(=O)NCc2ccc(C(F)(F)F)cc2)CC1=O	135 nM	1320 nM	–	–
CC(C)C1=C2[C@H]3CC[C@@H]4[C@@]5(C)CC[C@H](OC(=O)CC(C)(C)C(=O)O)C(C)(C)[C@@H]5CC[C@@]4(C)[C@]3(C)CC[C@@]2(C(=O)C(=O)NCC2CCCCC2)CC1=O	11 nM	27 nM	–	–

Source: ChEMBL document CHEMBL4024732, “Discovery of a novel and potent class of anti-HIV-1 maturation inhibitors with improved virology profile against gag polymorphisms” (Bioorg Med Chem Lett, 2017)
